Data as given in PubChem BioAssay (NCI).
“And” between values parts separate entries of the source, which are not always exact repeats. Equal values may be shown once.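 Tested at 5 concentrations; 48 h exposure; 96-well plates; endpoints linearly interpolated, else capped at highest concentration. GI50 = concentration required for 50% inhibition of growth. The concentration for full growth arrest is given as TGI.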

Columns and labels:
Test in all cases: NCI tumour cell line growth inhibition, 48 h
786-0 renal = tested on: 786-0 renal
A498 renal = tested on: A498 renal
A549 NSCLC = tested on: A549 NSCLC
ACHN renal = tested on: ACHN renal
BT-549 breast = tested on: BT-549 breast
CAKI-1 renal = tested on: CAKI-1 renal
CCRF-CEM leukemia = tested on: CCRF-CEM leukemia
COLO 205 colon = tested on: COLO 205 colon
DLD-1 colon = tested on: DLD-1 colon
DMS 114 small cell lung = tested on: DMS 114 small cell lung
DMS 273 small cell lung = tested on: DMS 273 small cell lung
DU-145 prostate = tested on: DU-145 prostate
EKVX NSCLC = tested on: EKVX NSCLC
HCC-2998 colon = tested on: HCC-2998 colon
HCT-116 colon = tested on: HCT-116 colon
HCT-15 colon = tested on: HCT-15 colon
HL-60(TB) leukemia = tested on: HL-60(TB) leukemia
HOP-18 NSCLC = tested on: HOP-18 NSCLC
HOP-62 NSCLC = tested on: HOP-62 NSCLC
HOP-92 NSCLC = tested on: HOP-92 NSCLC
HT29 colon = tested on: HT29 colon
IGROV1 ovarian = tested on: IGROV1 ovarian
K-562 leukemia = tested on: K-562 leukemia
KM12 colon = tested on: KM12 colon
KM20L2 colon = tested on: KM20L2 colon
LOX IMVI melanoma = tested on: LOX IMVI melanoma
LXFL 529 NSCLC = tested on: LXFL 529 NSCLC
M14 melanoma = tested on: M14 melanoma
M19-MEL melanoma = tested on: M19-MEL melanoma
MALME-3M melanoma = tested on: MALME-3M melanoma
MCF7 breast = tested on: MCF7 breast
MDA-MB-231 breast = tested on: MDA-MB-231 breast
MDA-MB-435 = tested on: MDA-MB-435
MDA-N = tested on: MDA-N
MOLT-4 leukemia = tested on: MOLT-4 leukemia
NCI-H226 lung = tested on: NCI-H226 lung
NCI-H23 lung = tested on: NCI-H23 lung
NCI-H460 lung = tested on: NCI-H460 lung
NCI-H522 lung = tested on: NCI-H522 lung
NCI/ADR-RES ovarian = tested on: NCI/ADR-RES ovarian
OVCAR-3 ovarian = tested on: OVCAR-3 ovarian
OVCAR-4 ovarian = tested on: OVCAR-4 ovarian
OVCAR-5 ovarian = tested on: OVCAR-5 ovarian
OVCAR-8 ovarian = tested on: OVCAR-8 ovarian
P388 leukemia = tested on: P388 leukemia
P388/ADR leukemia = tested on: P388/ADR leukemia
PC-3 prostate = tested on: PC-3 prostate
RPMI-8226 leukemia = tested on: RPMI-8226 leukemia
RXF 393 renal = tested on: RXF 393 renal
SF-268 CNS = tested on: SF-268 CNS
SF-295 CNS = tested on: SF-295 CNS
SF-539 CNS = tested on: SF-539 CNS
SK-MEL-2 melanoma = tested on: SK-MEL-2 melanoma
SK-MEL-28 melanoma = tested on: SK-MEL-28 melanoma
SK-MEL-5 melanoma = tested on: SK-MEL-5 melanoma
SK-OV-3 ovarian = tested on: SK-OV-3 ovarian
SN12C renal = tested on: SN12C renal
SN12K1 renal = tested on: SN12K1 renal
SNB-19 CNS = tested on: SNB-19 CNS
SNB-75 CNS = tested on: SNB-75 CNS
SNB-78 CNS = tested on: SNB-78 CNS
SR leukemia = tested on: SR leukemia
SW-620 colon = tested on: SW-620 colon
T-47D breast = tested on: T-47D breast
TK-10 renal = tested on: TK-10 renal
U251 CNS = tested on: U251 CNS
UACC-257 melanoma = tested on: UACC-257 melanoma
UACC-62 melanoma = tested on: UACC-62 melanoma
UO-31 renal = tested on: UO-31 renal
XF 498 CNS = tested on: XF 498 CNS

COc1cc(C2c3cc4c(cc3[C@@H](Nc3ccc(F)cc3)C3COC(=O)[C@H]23)OCO4)cc(OC)c1O (stereo not given in full)
GI50 (786-0 renal): 0.567 µM
TGI (786-0 renal): 5.26 µM
GI50 (A498 renal): 0.878 µM
TGI (A498 renal): 7.84 µM
GI50 (A549 NSCLC): 0.264 µM
TGI (A549 NSCLC): 5.17 µM
GI50 (ACHN renal): 0.326 µM
TGI (ACHN renal): 3.39 µM
TGI (BT-549 breast): 8.39 µM
GI50 (CAKI-1 renal): 0.29 µM
TGI (CAKI-1 renal): 4.68 µM
GI50 (CCRF-CEM leukemia): 0.201 µM and 0.347 µM
TGI (CCRF-CEM leukemia): 19.6 µM
TGI (COLO 205 colon): 15.6 µM
TGI (DLD-1 colon): 28.5 µM
GI50 (DMS 114 small cell lung): 0.997 µM
TGI (DMS 114 small cell lung): 9.63 µM
GI50 (DMS 273 small cell lung): 0.403 µM
TGI (DMS 273 small cell lung): 6.46 µM
TGI (DU-145 prostate): 8.89 µM
TGI (EKVX NSCLC): 12.5 µM
TGI (HCC-2998 colon): 8.96 µM
TGI (HCT-116 colon): 22.3 µM
TGI (HCT-15 colon): 26.1 µM
GI50 (HL-60(TB) leukemia): 0.181 µM and 0.631 µM
TGI (HL-60(TB) leukemia): 0.839 µM and 6.02 µM
TGI (HOP-18 NSCLC): 46.8 µM
GI50 (HOP-62 NSCLC): 0.416 µM
TGI (HOP-62 NSCLC): 3.3 µM
TGI (HOP-92 NSCLC): 24.8 µM
TGI (HT29 colon): 18.2 µM
TGI (IGROV1 ovarian): 42.2 µM
TGI (K-562 leukemia): 43 µM
TGI (KM12 colon): 13.5 µM
TGI (KM20L2 colon): 19.8 µM
GI50 (LOX IMVI melanoma): 0.44 µM
TGI (LOX IMVI melanoma): 10.5 µM
TGI (LXFL 529 NSCLC): 46.6 µM
GI50 (M14 melanoma): 0.795 µM
TGI (M14 melanoma): 17.4 µM
TGI (M19-MEL melanoma): 42.8 µM
TGI (MALME-3M melanoma): 13.4 µM
TGI (MCF7 breast): > 65.2 µM
TGI (MDA-MB-231 breast): 17.4 µM
TGI (MDA-MB-435): > 100 µM
TGI (MDA-N): > 100 µM
GI50 (MOLT-4 leukemia): 0.0657 µM
TGI (MOLT-4 leukemia): 0.821 µM and 2.26 µM
GI50 (NCI-H226 lung): 0.529 µM
TGI (NCI-H226 lung): 0.985 µM and 5.18 µM
GI50 (NCI-H23 lung): 0.386 µM
TGI (NCI-H23 lung): 7.56 µM
GI50 (NCI-H460 lung): 0.124 µM
TGI (NCI-H460 lung): 4.11 µM
GI50 (NCI-H522 lung): 0.823 µM
TGI (NCI-H522 lung): 9.12 µM
TGI (NCI/ADR-RES ovarian): 45.7 µM
TGI (OVCAR-3 ovarian): 29.5 µM
TGI (OVCAR-4 ovarian): 49.2 µM
TGI (OVCAR-5 ovarian): 37 µM
GI50 (OVCAR-8 ovarian): 0.886 µM
TGI (OVCAR-8 ovarian): 15.6 µM
TGI (P388 leukemia): 1.61 µM
TGI (P388/ADR leukemia): 1.63 µM
TGI (PC-3 prostate): 23.4 µM
GI50 (RPMI-8226 leukemia): 0.531 µM
TGI (RPMI-8226 leukemia): 17.1 µM
TGI (RXF 393 renal): 11.4 µM
TGI (SF-268 CNS): 27.7 µM
GI50 (SF-295 CNS): 0.548 µM
TGI (SF-295 CNS): 7.26 µM
GI50 (SF-539 CNS): 0.708 µM
TGI (SF-539 CNS): 6.02 µM
TGI (SK-MEL-2 melanoma): 19.2 µM
TGI (SK-MEL-28 melanoma): 48.3 µM
GI50 (SK-MEL-5 melanoma): 0.806 µM
TGI (SK-MEL-5 melanoma): 8.56 µM
TGI (SK-OV-3 ovarian): 21 µM
GI50 (SN12C renal): 0.718 µM
TGI (SN12C renal): 9.64 µM
TGI (SN12K1 renal): 12.2 µM
GI50 (SNB-19 CNS): 0.569 µM
TGI (SNB-19 CNS): 33.9 µM
GI50 (SNB-75 CNS): 0.438 µM
TGI (SNB-78 CNS): 99.2 µM
GI50 (SR leukemia): 0.0567 µM
TGI (SR leukemia): 0.612 µM and 4.27 µM
GI50 (SW-620 colon): 0.859 µM
TGI (SW-620 colon): 44.8 µM
TGI (T-47D breast): 61.3 µM
TGI (TK-10 renal): 14.8 µM
GI50 (U251 CNS): 0.451 µM
TGI (U251 CNS): 8.9 µM
TGI (UACC-257 melanoma): 31.3 µM
GI50 (UACC-62 melanoma): 0.941 µM
TGI (UACC-62 melanoma): 7.78 µM
GI50 (UO-31 renal): 0.753 µM
TGI (UO-31 renal): 8.72 µM
GI50 (XF 498 CNS): 0.718 µM
TGI (XF 498 CNS): 18.2 µM
